Reference: US4443438A (priority 1978, dated 1984)
Read-outs that look alike come from different tables or passages of the source.

Experiments:
[1] = tested on: pesticide-resistant green rice leafhopper (Nephotettix cincticeps); test: whole plant or invertebrate; assay type: in vivo; conditions: for mortality at 0.0125 % / mortality at 0.0225 %: Nephotettix cincticeps, 24 h, read-out: Mortality (%) after 24 hours
Experimental: The dilute solution was sprayed on rice plants in a 180-ml plastic cup at a rate of 15 cc/3 cups by means of a turn table. After air-drying, the treated rice plants were placed in a 5-liter beaker which was then covered with gauze. About 15 female adults of pesticide-resistant green rice leafhopper (Nephotettix cincticeps) were released in the beaker. After 3 hours, the knock-down ratio was examined, and after 24 hours the mortality was examined.

[2] = tested on: pesticide-resistant green rice leafhopper (Nephotettix cincticeps); test: Mortality of pesticide-resistant green rice leafhopper on dusted rice plants (Experimental example 3); assay type: in vivo; conditions: 2 kg/10 are
Experimental: The dusts (36), (37), (39), (43), (47) or (48) prepared in Preparation example 2 were each applied by means of a Bell jar duster to rice plants in a 1/10,000 are Wagner's pot at a rate of 2 kg/10 are. The treated pot was placed in a cylinder (diameter 20 cm, height 60 cm) which was then covered with gauze. About 30 female adults of pesticide-resistant green rice leafhopper (Nephotettix cincticeps) were liberated therein. After 24 hours, the mortality was examined.

[3] = tested on: green rice leafhoppers (Nephotettix cincticeps); test: Density index of green rice leafhopper adults in paddy field, sweeping method (Experimental example 1); assay type: in vivo; conditions: 3 kg/10 are, untreated = 100
in vivo = conditions: mouse, po
[4] = tested on: rice stem borer (Chilo suppressalis); test: Mortality of rice stem borer on dusted rice plants (Experimental example 4); assay type: in vivo; conditions: 3 kg/10 are, five days after application, 7200 min
From the text: About 50 eggs just before hatch of rice stem borer (Chilo suppressalis) were put on rice plants at the tiller stage cultivated in a 1/5,000 are Wagner's pot. After 5 days, the dust (1) prepared in Preparation example 2 was applied thereto at a rate of 3 kg/10are by means of a Bell jar duster. Five days after application, the rice stem was dissected to observe the dead and alive of rice stem borers.

[5] = Fish toxicity to carps, TLm48 (Experimental example 6); assay type: in vivo; conditions: carp, in vivo, read-out: TLm48 (ppm)
Experimental: (§1) Ten liters of the dilute solution was placed in a 10-liter glass vessel and 10 carps were liberated therein. After 48 hours, the dead and alive were examined to calculate TLm48 (ppm).

harmful organisms = conditions: reported in Published Unexamined Japanese Patent Application No. 125145/1977; cited from earlier work
carps = test: Fish toxicity to carps, TLm48 (Experimental example 6); assay type: in vivo; conditions: as 0.3% dust; 48 hours
Experimental: as §1

[6] = as 20% wettable powder, diluted 25,000 times
[7] = 25% wettable powder, diluted 2,000 times

CC1(C)C(C=C(Cl)Cl)C1C(=O)OC(C#N)c1cccc(Oc2ccc(Br)cc2)c1 (racemic)
Knock-down ratio (%) after 3 hours [1, 6]: 50% | Mortality (%) after 24 hours [1, 6]: 80%

CC1(C)C(C=C(Cl)Cl)C1C(=O)OC(C#N)c1cccc(Oc2ccc(Br)cc2)c1 (racemic) [m-(p-bromophenoxy)-α-cyanolbenzyl trans- or trans-rich-2,2-dimethyl-3-(2,2-dichlorovinyl)cyclopropanecarboxylate]
Mortality (%) after 24 hours ([2]; as 0.05% dust): 85% | Density index After 2 days ([3]; as 0.1% dust): 5 | Density index After 15 days ([3]; as 0.1% dust): 25 | LD50 at 24 h (in vivo): > 2000 mg/kg

CC1(C)[C@H](C=C(Cl)Cl)[C@H]1C(=O)OC(C#N)c1cccc(Oc2ccc(Br)cc2)c1 (relative stereo) [Compound of the formula (I) [dl(acid moiety)-trans isomer], m-(p-bromophenoxy)-α-cyanolbenzyl trans- or trans-rich-2,2-dimethyl-3-(2,2-dichlorovinyl)cyclopropanecarboxylate]
Mortality (%) ([4]; as 0.1% dust): 20% | Density index After 2 days ([3]; as 0.1% dust): 3 | Density index After 15 days ([3]; as 0.1% dust): 18 | LD50 at 24 h (in vivo): > 2000 mg/kg | LC50 at 48 h ([5]; as 0.1% dust): > 5 µg/mL

CCC(C)c1ccccc1OC(=O)NC (centres unmarked) [BPMC, 2-sec-Butylphenyl N-methylcarbamate]
Knock-down ratio (%) after 3 hours [1, 7]: 3% | mortality at 0.0125 % [1, 7]: 3%

COP(=S)(OC)Oc1ccc(SC)c(C)c1 [Baycid, O,O-Dimethyl O-[3-methyl-4-(methylthio)phenyl]thiophosphate]
mortality at 0.0225 % [1]: 20% | Knock-down ratio (%) after 3 hours ([1]; in vivo): 0%

CCOP(=S)(OCC)Oc1cc(C)nc(C(C)C)n1 [Diazinon, O,O-Diethyl O-(2-isopropyl-4-methyl-6-pyrimidinyl)phosphorothioate]
Density index After 2 days ([3]; as 5% dust): 20 | Density index After 15 days ([3]; as 5% dust): 35 | LC50 at 48 h ([5]; as 0.3% dust): > 5 µg/mL

CC(C)OP(=O)(OC(C)C)SCc1ccccc1 [IBP, O,O-Diisopropyl S-benzylphosphorothioate]
mortality at 0.0225 % [1]: 0% | Knock-down ratio (%) after 3 hours ([1]; in vivo): 0% | LC50 at 48 h ([5]; as 0.3% dust): > 5 µg/mL

CCCOP(=O)(OCCC)Oc1ccc(SC)cc1 [Kayaphos, O,O-Di-n-propyl p-methylthiophenylphosphate]
Mortality (%) after 24 hours ([2]; as 2% dust): 43%

CNC(=O)Oc1ccc(C)c(C)c1 [MPMC, 3,4-Xylyl N-methylcarbamate]
Knock-down ratio (%) after 3 hours [1, 7]: 10% | mortality at 0.0125 % [1]: 10% | Density index After 2 days ([3]; as 3% dust): 7 | Density index After 15 days ([3]; as 3% dust): 60

CNC(=O)Oc1cccc(C)c1 [MTMC, m-Tolyl N-methylcarbamate]
Mortality (%) after 24 hours ([2]; as 2% dust): 30%

CNC(=O)Oc1cccc2ccccc12 [NAC, 1-Naphthyl N-methylcarbamate]
mortality at 0.0125 % [1]: 10%

CNC(=O)Oc1ccccc1OC(C)C [PHC, 2-Isopropoxyphenyl N-methylcarbamate]
LC50 at 48 h ([5]; as 0.3% dust): > 5 µg/mL

COP(=S)(OC)Oc1ccc([N+](=O)[O-])c(C)c1 [Sumithion, O,O-Dimethyl O-(3-methyl-4-nitrophenyl)phosphorothioate]
mortality at 0.0225 % [1]: 15% | Knock-down ratio (%) after 3 hours ([1]; in vivo): 0% | Mortality (%) ([4]; as 3% dust): 70% | Mortality (%) after 24 hours ([2]; as 2% dust): 10% | Density index After 2 days ([3]; as 5% dust): 60 | Density index After 15 days ([3]; as 5% dust): 95 | LD50 at 24 h (in vivo): > 1000 mg/kg

CC1(C)C(C=C(Cl)Cl)C1C(=O)OC(C#N)c1cccc(Oc2ccc(Br)cc2)c1 (stereo not drawn) [compound of the formula (I), m-(p-bromophenoxy)-α-cyanolbenzyl trans- or trans-rich-2,2-dimethyl-3-(2,2-dichlorovinyl)cyclopropanecarboxylate]
insecticidal and acaricidal activity (harmful organisms): has insecticidal and acaricidal activity

m-Isopropylphenoxy N-methylcarbamate [MIPC]
TLm48 (ppm) (carps): > 5 ppm
